Values of other authors as cited in patent publication US20010014678A1, “Nicotine addiction treatment” (CARY MEDICAL CORPORATION, priority 1997, published 2001).

CN1CCCC1c1cccnc1 (centres unmarked) [nicotine]
metabolic half-life (in vivo): roughly 2 hours | nicotine in venous blood (provided by one cigarette): 5 to 30 ng/mL
